Target: T1, Recombinant human His-tagged Trim24-PHD-bromodomain (Homo sapiens, UniProt O15164)
T1 construct: Recombinant human His-tagged Trim24-PHD-bromodomain (produced in-house); made in house
T1 sequence (O15164 824-1006 limits assumed): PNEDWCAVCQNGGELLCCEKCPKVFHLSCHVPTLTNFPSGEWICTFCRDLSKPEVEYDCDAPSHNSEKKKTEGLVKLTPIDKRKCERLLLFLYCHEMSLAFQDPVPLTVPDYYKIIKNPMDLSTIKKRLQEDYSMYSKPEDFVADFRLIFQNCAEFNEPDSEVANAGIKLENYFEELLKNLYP
Assay: Trim24 AlphaScreen Assay
Format: binding
Details: 5 nM Trim24 protein, 15 nM biotinylated H3K23ac (1-33aa) peptide
In short: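 AlphaScreen read-out after 2 h with streptavidin donor and Ni-chelate acceptor beads at 10 ug/mL each, following 1 h room-temperature incubation of compound, His-tagged PHD-bromodomain protein and biotin-H3K23ac (1-33aa) peptide in Hepes pH 7.5 buffer with NaCl and Triton X-100. Signals normalised between no-compound and no-protein wells; IC50 from four-parameter logistic curves.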

Structure (SMILES)	IC50
CC(C)COc1cccc(Oc2cc3c(cc2NS(=O)(=O)C2CC2)n(C)c(=O)n3C)c1 [Example 59, N-(6-(3-isobutoxyphenoxy)-1,3-dimethyl-2-oxo-2,3-dihydro-1H-benzo[d]imidazol-5-yl)cyclopropanesulfonamide]	100 to 1000 nM
Cn1c(=O)n(C)c2cc(Oc3cc(OCCCCCCN)cc(OCC(F)(F)F)c3)c(NS(=O)(=O)c3cccnc3)cc21 [Example 201, N-(6-(3-((6-aminohexyl)oxy)-5-(2,2,2-trifluoroethoxy)phenoxy)-1,3-dimethyl-2-oxo-2,3-dihydro-1H-benzo[d]imidazol-5-yl)pyridine-3-sulfonamide]	1 to 10 nM
CCCOc1cc(OCCCCCCN(C)C)cc(Oc2cc3c(cc2NS(=O)(=O)c2cnn(C)c2C)n(C)c(=O)n3C)c1 [Example 219, N-(6-(3-((6-(dimethylamino)hexyl)oxy)-5-propoxyphenoxy)-1,3-dimethyl-2-oxo-2,3-dihydro-1H-benzo[d]imidazol-5-yl)-1,5-dimethyl-1H-pyrazole-4-sulfonamide]	1 to 10 nM
CCCOc1cccc(Oc2cc3c(cc2NS(=O)(=O)c2cn(C)cn2)n(C)c(=O)n3C)c1C [Example 103, N-(1,3-dimethyl-6-(2-methyl-3-propoxyphenoxy)-2-oxo-2,3-dihydro-1H-benzo[d]imidazol-5-yl)-1-methyl-1H-imidazole-4-sulfonamide]	> 1000 nM
CCCOc1cccc(Oc2cc3c(cc2NS(=O)(=O)CCOC)n(C)c(=O)n3C)c1 [Example 85, N-(1,3-dimethyl-2-oxo-6-(3-propoxyphenoxy)-2,3-dihydro-1H-benzo[d]imidazol-5-yl)-2-methoxyethane-1-sulfonamide]	100 to 1000 nM
COc1ccc(S(=O)(=O)Nc2cc3c(cc2Oc2ccc(F)c(OCC4CC4)c2)n(C)c(=O)n3C)cc1OC [Example 131, N-(6-(3-(cyclopropylmethoxy)-4-fluorophenoxy)-1,3-dimethyl-2-oxo-2,3-dihydro-1H-benzo[d]imidazol-5-yl)-3,4-dimethoxybenzenesulfonamide]	100 to 1000 nM
Cc1n[nH]c(C)c1S(=O)(=O)Nc1cc2c(cc1Oc1cccc(OCC3CC3)c1)n(C)c(=O)n2C [Example 136, N-(6-(3-(cyclopropylmethoxy)phenoxy)-1,3-dimethyl-2-oxo-2,3-dihydro-1H-benzo[d]imidazol-5-yl)-3,5-dimethyl-1H-pyrazole-4-sulfonamide]	10 to 100 nM
CCCOc1cc(OCCCCCCN)cc(Oc2cc3c(cc2NS(=O)(=O)c2cccc(C#N)c2)n(C)c(=O)n3C)c1 [Example 190, N-(6-(3-((6-aminohexyl)oxy)-5-propoxyphenoxy)-1,3-dimethyl-2-oxo-2,3-dihydro-1H-benzo[d]imidazol-5-yl)-3-cyanobenzenesulfonamide]	10 to 100 nM
CCCOc1cc(OCCCCN(C)C)cc(Oc2cc3c(cc2NS(=O)(=O)c2cccc(C(=O)O)c2)n(C)c(=O)n3C)c1 [Example 253, 3-(N-(6-(3-(4-(dimethylamino)butoxy)-5-propoxyphenoxy)-1,3-dimethyl-2-oxo-2,3-dihydro-1H-benzo[d]imidazol-5-yl)sulfamoyl)benzoic acid]	10 to 100 nM
Cc1c(S(=O)(=O)Nc2cc3c(cc2Oc2cc(OCCCCN)cc(OCC(F)(F)F)c2)n(C)c(=O)n3C)cnn1C [Example 209, N-(6-(3-(4-aminobutoxy)-5-(2,2,2-trifluoroethoxy)phenoxy)-1,3-dimethyl-2-oxo-2,3-dihydro-1H-benzo[d]imidazol-5-yl)-1,5-dimethyl-1H-pyrazole-4-sulfonamide]	1 to 10 nM
Cn1cnc(S(=O)(=O)Nc2cc3c(cc2Oc2cccc(OCc4ccccn4)c2)n(C)c(=O)n3C)c1 [Example 28, N-(1,3-dimethyl-2-oxo-6-(3-(pyridin-2-ylmethoxy)phenoxy)-2,3-dihydro-1H-benzo[d]imidazol-5-yl)-1-methyl-1H-imidazole-4-sulfonamide]	100 to 1000 nM
CCCOc1cc(OCCCCCCN)cc(Oc2cc3c(cc2NS(=O)(=O)c2cccc(C(=O)OC)c2)n(C)c(=O)n3C)c1 [Example 191, methyl 3-(N-(6-(3-((6-aminohexyl)oxy)-5-propoxyphenoxy)-1,3-dimethyl-2-oxo-2,3-dihydro-1H-benzo[d]imidazol-5-yl)sulfamoyl)benzoate]	10 to 100 nM
Cc1nc(S(=O)(=O)Nc2cc3c(cc2Oc2ccc(F)c(OCC4CC4)c2)n(C)c(=O)n3C)cn1C [Example 130, N-(6-(3-(cyclopropylmethoxy)-4-fluorophenoxy)-1,3-dimethyl-2-oxo-2,3-dihydro-1H-benzo[d]imidazol-5-yl)-1,2-dimethyl-1H-imidazole-4-sulfonamide]	> 1000 nM
Cn1c(=O)n(C)c2cc(Oc3cccc(OCc4ccccc4)c3)c(NS(=O)(=O)c3cccc(Br)c3)cc21 [Example 38, N-(6-(3-(benzyloxy)phenoxy)-1,3-dimethyl-2-oxo-2,3-dihydro-1H-benzo[d]imidazol-5-yl)-3-bromobenzenesulfonamide]	> 1000 nM
CCCOc1cccc(Oc2cc3c(cc2NS(=O)(=O)c2cn(C)cn2)n(C)c(=O)n3C)c1Cl [Example 111, N-(6-(2-chloro-3-propoxyphenoxy)-1,3-dimethyl-2-oxo-2,3-dihydro-1H-benzo[d]imidazol-5-yl)-1-methyl-1H-imidazole-4-sulfonamide]	> 1000 nM
CCCOc1cc(OCCCN)cc(Oc2cc3c(cc2NS(=O)(=O)c2ccc(OC)c(OC)c2)n(C)c(=O)n3C)c1 [Example 216, N-(6-(3-(3-aminopropoxy)-5-propoxyphenoxy)-1,3-dimethyl-2-oxo-2,3-dihydro-1H-benzo[d]imidazol-5-yl)-3,4-dimethoxybenzenesulfonamide]	10 to 100 nM
CCCOc1cc(OCCCCN2CCOCC2)cc(Oc2cc3c(cc2NS(=O)(=O)c2ccc(OC)c(OC)c2)n(C)c(=O)n3C)c1 [Example 246, N-(1,3-dimethyl-6-(3-(4-morpholinobutoxy)-5-propoxyphenoxy)-2-oxo-2,3-dihydro-1H-benzo[d]imidazol-5-yl)-3,4-dimethoxybenzenesulfonamide 2,2,2-trifluoroacetate]	10 to 100 nM
CCCOc1cc(OCCCOC)cc(Oc2cc3c(cc2NS(=O)(=O)c2cn(CC(C)C)cn2)n(C)c(=O)n3C)c1 [Example 147, 1-isobutyl-N-(6-(3-(3-methoxypropoxy)-5-propoxyphenoxy)-1,3-dimethyl-2-oxo-2,3-dihydro-1H-benzo[d]imidazol-5-yl)-1H-imidazole-4-sulfonamide]	10 to 100 nM
COc1ccc(S(=O)(=O)Nc2cc3c(cc2Oc2cccc(OCc4ccc(Cl)nc4)c2)n(C)c(=O)n3C)cc1OC [Example 20, N-(6-(3-((6-chloropyridin-3-yl)methoxy)phenoxy)-1,3-dimethyl-2-oxo-2,3-dihydro-1H-benzo[d]imidazol-5-yl)-3,4-dimethoxybenzenesulfonamide]	> 1000 nM

Second part, the compound after the results:

IC50	Structure (SMILES)
10 to 100 nM	CCCOc1cc(OCCCOC)cc(Oc2cc3c(cc2NS(=O)(=O)c2ccc(OC)c(OC)c2)n(C)c(=O)n3C)c1 [Example 138, 3,4-dimethoxy-N-(6-(3-(3-methoxypropoxy)-5-propoxyphenoxy)-1,3-dimethyl-2-oxo-2,3-dihydro-1H-benzo[d]imidazol-5-yl)benzenesulfonamide]
100 to 1000 nM	CCCOc1cccc(Oc2cc3c(cc2NS(=O)(=O)c2cc(C)nn2C)n(C)c(=O)n3C)c1 [Example 93, N-(1,3-dimethyl-2-oxo-6-(3-propoxyphenoxy)-2,3-dihydro-1H-benzo[d]imidazol-5-yl)-1,3-dimethyl-1H-pyrazole-5-sulfonamide]
10 to 100 nM	CCCOc1cc(OCCCCCCO)cc(Oc2cc3c(cc2NS(=O)(=O)c2cccnc2)n(C)c(=O)n3C)c1 [Example 180, N-(6-(3-((6-hydroxyhexyl)oxy)-5-propoxyphenoxy)-1,3-dimethyl-2-oxo-2,3-dihydro-1H-benzo[d]imidazol-5-yl)pyridine-3-sulfonamide]
100 to 1000 nM	COc1ccc(S(=O)(=O)Nc2cc3c(cc2Oc2cccc(OCc4ccncc4)c2)n(C)c(=O)n3C)cc1OC [Example 31, N-(1,3-dimethyl-2-oxo-6-(3-(pyridin-4-ylmethoxy)phenoxy)-2,3-dihydro-1H-benzo[d]imidazol-5-yl)-3,4-dimethoxybenzenesulfonamide]
100 to 1000 nM	CCCOc1cccc(Oc2cc3c(cc2NS(=O)(=O)c2cccc(N(C)C)c2)n(C)c(=O)n3C)c1 [Example 173, N-(1,3-dimethyl-2-oxo-6-(3-propoxyphenoxy)-2,3-dihydro-1H-benzo[d]imidazol-5-yl)-3-(dimethylamino)benzenesulfonamide]
100 to 1000 nM	C=CCOc1cccc(Oc2cc3c(cc2NS(=O)(=O)c2ccc(OC)c(NC(C)=O)c2)n(C)c(=O)n3C)c1 [Example 143, N-(5-(N-(6-(3-(allyloxy)phenoxy)-1,3-dimethyl-2-oxo-2,3-dihydro-1H-benzo[d]imidazol-5-yl)sulfamoyl)-2-methoxyphenyl)acetamide]
10 to 100 nM	CCCOc1cc(OCCCOC)cc(Oc2cc3c(cc2NS(=O)(=O)c2cnn(C)c2C)n(C)c(=O)n3C)c1 [Example 154]
10 to 100 nM	CCCOc1cc(OCCCOC)cc(Oc2cc3c(cc2NS(=O)(=O)c2cn(C)nc2C)n(C)c(=O)n3C)c1 [Example 206, N-(6-(3-(3-methoxypropoxy)-5-propoxyphenoxy)-1,3-dimethyl-2-oxo-2,3-dihydro-1H-benzo[d]imidazol-5-yl)-1,3-dimethyl-1H-pyrazole-4-sulfonamide]
100 to 1000 nM	Cn1c(=O)n(C)c2cc(Oc3cccc(OCc4ccccc4)c3)c(NS(=O)(=O)c3cccc(F)c3)cc21 [Example 43, N-(6-(3-(benzyloxy)phenoxy)-1,3-dimethyl-2-oxo-2,3-dihydro-1H-benzo[d]imidazol-5-yl)-3-fluorobenzenesulfonamide]

Source: US20160060260A1, “BROMODOMAIN INHIBITORS FOR TREATING DISEASE” (Board of Regents, The University of Texas System, priority 2014, published 2016)
